Measured values: publication PMC4838342 (Nucleic Acids Research, 2015)
Ends that are not written are not given here.

Tests used:
(His)6-sNASP = test: Pulldown of MBP-H3 fusions by (His)6-sNASP (epitope mapping); type: binding, human; conditions: MBP fusions from whole cell bacterial extracts; Nickel-NTA beads; SDS-PAGE, Coomassie
Experimental: (§1) Protein was eluted in the same buffer with 250 mM imidazole, but without protease inhibitors. The (His)6 tag was cleaved overnight by TEV protease, whilst concomitantly dialysing to 100 mM sodium chloride, 20 mM Tris–HCl pH 8.0, 1 mM EDTA and 5 mM dithiothreitol. Cleaved protein was further purified by ion-exchange using a ResourceQ column (GE Healthcare) before gel filtration chromatography in 200 mM sodium chloride, 20 mM Hepes-KOH pH 7.6 and 1 mM EDTA using a 26/60 Superdex 200 column (GE Healthcare). The purified protein was concentrated and stored in aliquots at −80°C. Homologues, truncations and point mutants of sNASP were expressed and purified using the same method. MBP-H3 peptide fusions were expressed in bacteria and used as whole cell extracts (epitope mapping) or purified over a Dextrin Sepharose column (GE Healthcare) in one-step purification in 0.5 M sodium chloride, 20 mM Hepes-KOH pH 7.6, 1 mM EDTA and 5 mM dithiothreitol. Concentrated protein was dialysed against 200 mM sodium chloride, 20 mM Hepes-KOH, 1 mM EDTA and 5 mM dithiothreitol and stored in aliquots at −80°C.
Mutations were made in the MBP H3 116–135 construct using a mixture of site-direct mutagenesis and oligo ligation. Whole cell extracts were prepared from bacteria and used as inputs for the pulldown experiments with (His)6-sNASP pre-bound to Nickel-NTA beads (GE Healthcare).

sNASP [1] = test: Fluorescence-2-hybrid (F2H) assay at LacO array, EGFP-sNASP; type: cell-based, human; conditions: U2OS cells, LacO (256×) array, mCherry-LacI-histone constructs, live cells
Experimental: For all the F2H assays, we used human U2OS cells harbouring the stably integrated lacO (256×) array described earlier ([44]), except for mitochondrial F2H, which was carried out on U2OS cells without an integrated array. F2H assays were essentially performed as previously described in ([45],[46]) and ([44]). Image analysis was manually performed with ImageJ image analysis software. Fluorescence intensity at the LacI array was calculated as a percentage increase over the nucleoplasm. Assignment of the LacO array and nucleoplasm were done manually. Twenty cells were counted for statistical analysis so as not to inflate the calculated P-value. Only cells in which a clearly discernable array was present were counted. For the mitochondrial F2H, the first 70 residues of the outer mitochondrial membrane protein TOM70 were cloned onto the N-terminus of mCherry. Full length H3 or H3 residues 116–135 was then cloned onto the C-terminus of mCherry to create a TOM70-mCherry-Histone triple fusion. Deleting residues 378–383 using standard site-directed mutagenesis techniques disrupted the nuclear localization sequence (NLS) of mEGFP-sNASP, resulting in its cytoplasmic expression.

[2] = system: sNASP homologue from Arabidopsis thaliana; test: Pulldown of MBP H3 116–135 by A. thaliana sNASP homologue; type: binding; conditions: (His)6-tagged recombinant homologue
Experimental: as §1
(§2) Mutations were made in the MBP H3 116–135 construct using a mixture of site-direct mutagenesis and oligo ligation. Whole cell extracts were prepared from bacteria and used as inputs for the pulldown experiments with (His)6-sNASP pre-bound to Nickel-NTA beads (GE Healthcare). […]

sNASP [3] = test: Analytical gel filtration, sNASP + MBP H3 116–135; type: binding, human; conditions: Superdex S200; 20 mM Hepes-KOH pH 7.5, 200 mM NaCl
Experimental: (§3) Analytical gel filtration was carried out using a Superdex S200 10/300 Gl column (GE Healthcare) in 20 mM Hepes-KOH pH 7.5 and 200 mM sodium chloride, unless otherwise stated. 0.5 ml fractions were collected encompassing the void (7 ml) and bed (21 ml) volumes of the column. Fractions were separated by SDS-PAGE and stained with Coomassie Brilliant Blue (SERVA).

Sim3 [4] = test: Pulldown of MBP H3 116–135 by Sim3; type: binding, Schizosaccharomyces pombe; conditions: (His)6-tagged recombinant homologue
Experimental: as §1, §2

Hif1-GST = test: Gel filtration, Hif1-GST + MBP H3 116–135; type: binding, Saccharomyces cerevisiae; conditions: Superdex S200; 20 mM Hepes-KOH pH 7.5, 200 mM NaCl; Hif1 GST tagged
Experimental: as §3

Hif1 = test: Pulldown of MBP H3 116–135 by Hif1; type: binding, Saccharomyces cerevisiae; conditions: (His)6-tagged recombinant homologue
Experimental: as §1, §2

[5] = system: sNASP homologue from Chaetomium thermophilum; test: Pulldown of MBP H3 116–135 by C. thermophilum sNASP homologue; type: binding; conditions: (His)6-tagged recombinant homologue
Experimental: as §1, §2

sNASP [6] = test: Isothermal titration calorimetry, sNASP titrated into MBP H3 116–135; set-up: species or system human; conditions: one-site binding model
Experimental: Isotherms were analysed by the software NITPIC and SEDPHAT ([43]) and plotted using the software GUSSI.

Sim3 [7] = test: Gel filtration, Sim3 + MBP H3 116–135; type: binding, Schizosaccharomyces pombe; conditions: Superdex S200; 20 mM Hepes-KOH pH 7.5, 200 mM NaCl
Experimental: as §3

125–135: H3 fragment fused to MBP (QLARRIRGERA; also: fused to MBP; UniProt P68431 126-136, looked up, fragment)
pulldown by (His)6-sNASP ((His)6-sNASP): pulled down efficiently

last 20 residues of H3: short region encompassing the last 20 residues of H3
interaction with sNASP in F2H assay (sNASP [1]): sufficient for binding

CENPA: homologous region of the CENPA variant of H3 from human (VTLFPKDVQLARRIRGLEE; UniProt P49450 119-137, looked up, fragment)
pulldown by (His)6-sNASP ((His)6-sNASP): able to pull down

MBP H3 116–135: C-terminal 20 residues of H3 fused to MBP
pulldown by A. thaliana homologue [2]: pulled down stoichiometric amounts | complex formation by gel filtration (sNASP [3]): form a stable complex | pulldown by S. pombe homologue (Sim3) (Sim3 [4]): pulled down stoichiometric amounts | pulldown by (His)6-sNASP ((His)6-sNASP): pulled down to near stoichiometric amounts | complex formation with Hif1-GST by gel filtration (Hif1-GST): eluted in separate fractions | pulldown by S. cerevisiae homologue (Hif1) (Hif1): no pull down was observed | pulldown by C. thermophilum homologue [5]: pulled down stoichiometric amounts | stoichiometry in words (sNASP [6]; partial degradation likely caused underestimated ratios): close to 1:1 stoichiometry | Kd (sNASP [6]; range of n = 3 with varying cell and titrant concentrations, read-out: dissociation constant): 47 to 68 nM | complex formation with Sim3 by gel filtration (Sim3 [7]): coeluted
